Columns and labels:
Format in all cases: in vivo
LOLMU = assay: Herbicidal post-emergence action; conditions: 80 g/ha, visual assessment after about three weeks, 100% = plants have died
Experimental: (§1) 2. Herbicidal Post-Emergence Action
(§2) • Seeds of monocotylidonous and dicotylidonous weed and crop plants are placed in sandy loam in wood fibre pots, covered with soil and cultivated in a greenhouse under good growth conditions. Two to three weeks after sowing, the test plants are treated at the one-leaf stage. The test compounds, formulated as wettable powders (WP), are then with a water application rate of 600 l/ha (converted), with 0.2% of wetting agent added, sprayed onto the green parts of the plants in different amounts. After the test plants have been kept in the greenhouse under optimum growth conditions for about three weeks, the effect of the preparations is assessed visually in comparison to untreated controls (herbicidal effect in percent: 100% effect=the plants have died, 0% effect=like control plants). Post-Emergence, 80 g/ha

SETVI = assay: Herbicidal post-emergence action; conditions: visual assessment after about three weeks, 100% = plants have died; for herbicidal effect in percent, SETVI: 80 g/ha; for pest or weed control at 80 g/ha: 504 h, read-out: herbicidal effect in percent, SETVI
Experimental: as §1, §2

ECHCG = assay: Herbicidal post-emergence action; conditions: 80 g/ha, visual assessment after about three weeks, 100% = plants have died
Experimental: as §1, §2

ALOMY = assay: Herbicidal post-emergence action; conditions: 80 g/ha, visual assessment after about three weeks, 100% = plants have died
Experimental: as §1, §2

AVEFA = assay: Herbicidal post-emergence action; conditions: 80 g/ha, visual assessment after about three weeks, 100% = plants have died
Experimental: as §1, §2

[1] = system: monocotylidonous and dicotylidonous weed and crop plants; assay: Herbicidal pre-emergence action; conditions: 320 g/ha, visual assessment after three weeks, 100% = plants have died; for herbicidal effect in percent, ALOMY: ALOMY = Alopecurus myosuroides; for herbicidal effect in percent, AVEFA: AVEFA = Avena fatua; for herbicidal effect in percent, ECHCG: ECHCG = Echinochloa crus-galli; for herbicidal effect in percent, LOLMU: LOLMU = Lolium multiflorum; for herbicidal effect in percent, SETVI: SETVI = Setaria viridis; for herbicidal effect in percent, VIOTR: VIOTR = Viola tricolor
Excerpt: 1. Herbicidal Pre-Emergence Action
• Seeds of monocotylidonous and dicotylidonous weed and crop plants are placed in sandy loam in wood fibre pots and covered with soil. The test compounds, formulated in the form of wettable powders (WP), are then, as an aqueous suspension with a water application rate of 600 l/ha (converted), with 0.2% of wetting agent added, applied to the surface of the covering soil in different amounts. • After the treatment, the pots are placed in a greenhouse and kept under good growth conditions for the test plants. The visual assessment of the emergence damage on the test plants is carried out after a trial period of three weeks by comparison with the untreated controls (herbicidal effect in percent: 100% effect=the plants have died, 0% effect=like control plants).

SMILES | herbicidal effect in percent, LOLMU (LOLMU) [%] | herbicidal effect in percent, SETVI (SETVI) [%] | herbicidal effect in percent, ECHCG (ECHCG) [%] | herbicidal effect in percent, ALOMY (ALOMY) [%] | herbicidal effect in percent, AVEFA (AVEFA) [%] | herbicidal effect in percent, ALOMY [1] [%] | herbicidal effect in percent, AVEFA [1] [%] | herbicidal effect in percent, ECHCG [1] [%] | herbicidal effect in percent, LOLMU [1] [%] | herbicidal effect in percent, SETVI [1] [%] | herbicidal effect in percent, VIOTR [1] [%] | pest or weed control at 80 g/ha (SETVI) [%]
Cc1cc(C)c(C2C(=O)C3CC(C4OCCO4)CC3C2=O)c(C)c1 (mixture of isomers) [I-a-30] | 90 | 90 | 90 |  |  |  |  |  |  |  |  | 
Cc1cc(C)c(C2C(=O)C3CC(C=NOC(C)C)CC3C2=O)c(C)c1 (mixture of isomers) [I-a-31] | 90 | 100 | 90 | 90 | 80 |  |  |  |  |  |  | 
Cc1cc(C)c(C2C(=O)C3CC(C4OCCCO4)CC3C2=O)c(C)c1 (mixture of isomers) [I-a-32] | 90 | 90 | 80 |  |  |  |  |  |  |  |  | 
CCc1cc(C)cc(CC)c1C1C(=O)C2CC(C(C)=O)CC2C1=O (mixture of isomers) [I-a-33] | 100 | 90 | 100 | 100 | 100 |  |  |  |  |  |  | 
CCc1cc(C)cc(CC)c1C1C(=O)C2CC(C(C)=NOC)CC2C1=O (mixture of isomers) [I-a-34] | 100 | 90 | 100 | 100 |  |  |  |  |  |  |  | 
CCc1cc(C)cc(CC)c1C1C(=O)C2CC(C(C)O)CC2C1=O (mixture of isomers) [I-a-41] | 100 | 100 | 100 | 100 | 100 |  |  |  |  |  |  | 
CCc1cc(C)cc(CC)c1C1C(=O)C2CC(CSC)CC2C1=O (mixture of isomers) [I-a-60] | 90 | 90 | 100 | 90 | 90 |  |  |  |  |  |  | 
CCc1cc(C)cc(CC)c1C1=C(OCc2ccccc2)C2CC(CBr)CC2C1=O (mixture of isomers) [I-a-61] | 90 | 90 | 90 |  |  |  |  |  |  |  |  | 
CCOC(=O)CC1CC2C(=O)C(c3c(CC)cc(C)cc3CC)=C(OCC)C2C1 (mixture of isomers) [I-a-81] | 80 | 90 | 80 | 80 |  |  |  |  |  |  |  | 
CCc1cc(C)cc(CC)c1C1=C(OC(=O)C(C)(C)C)C2CC(C3OCCCO3)CC2C1=O (mixture of isomers) [I-b-3] | 100 |  | 100 | 100 |  | 100 | 90 | 100 | 100 | 100 | 90 | 
CCc1cc(C)cc(CC)c1C1=C(OC(=O)C(C)(C)C)C2CC(C3OCCO3)CC2C1=O (mixture of isomers) [I-b-4] | 100 | 100 | 100 | 100 | 90 | 100 | 90 | 100 | 100 | 100 | 90 | 
CCc1cc(C)cc(CC)c1C1=C(OC(=O)C(C)C)C2CC(COC(C)=O)CC2C1=O (mixture of isomers) [I-b-23] | 90 | 90 | 100 | 80 | 90 |  |  |  |  |  |  | 
CCc1cc(C)cc(CC)c1C1=C(OC(=O)OC(C)C)C2CC(C=NOC)CC2C1=O (mixture of isomers) [I-c-14] | 100 | 100 | 100 | 100 | 100 |  |  |  |  |  |  | 
CCOC(=O)OC1=C(c2c(CC)cc(C)cc2CC)C(=O)C2CC(COC(C)=O)CC12 (mixture of isomers) [I-c-15] | 90 | 80 | 90 |  |  |  |  |  |  |  |  | 
CCOC(=O)CC1CC2C(=O)C(c3c(CC)cc(C)cc3CC)=C(OC(=O)OCC)C2C1 (mixture of isomers) [I-c-16] |  | 80 | 80 |  |  |  |  |  |  |  |  | 
CCOC(=O)OC1=C(c2c(CC)cc(C)cc2CC)C(=O)C2CC(C(C)=O)CC12 (mixture of isomers) [I-c-17] | 100 | 80 | 90 | 90 | 90 |  |  |  |  |  |  | 
CCOC(=O)OC1=C(c2c(CC)cc(C)cc2CC)C(=O)C2CC(C(C)=NOC)CC12 (mixture of isomers) [I-c-18] | 100 |  | 90 | 100 | 80 |  |  |  |  |  |  | 
CCOC(=O)OC1=C(c2c(CC)cc(C)cc2CC)C(=O)C2CC(CCC#N)CC12 (mixture of isomers) [I-c-21] | 100 | 90 | 100 |  | 100 |  |  |  |  |  |  | 
CCOC(=O)OC1=C(c2c(CC)cc(C)cc2CC)C(=O)C2CC(CCC(C)=NOC)CC12 (mixture of isomers) [I-c-24] | 100 | 100 | 100 | 90 | 80 |  |  |  |  |  |  | 
CCc1cc(C)cc(CC)c1C1C(=O)C2CC(CCC(C)=NOC)CC2C1=O (racemic) [I-a-42, 2-(2,6-diethyl-4-methylphenyl)-5-[3-methoxyiminobutyl]-tetrahydropentalene-1,3-dione] | 100 |  | 100 | 90 | 100 |  |  |  |  |  |  | 100
CCc1cc(C)cc(CC)c1C1C(=O)C2CC(CCC(C)=O)CC2C1=O (stereo not shown) [I-a-39, 2-(2,6-diethyl-4-methylphenyl)-5-(3-oxobutyl)-tetrahydropentalene-1,3-dione] | 100 |  | 100 | 100 |  |  |  |  |  |  |  | 100
CCc1cc(C)cc(CC)c1C1C(=O)C2CC(C=O)CC2C1OC(=O)C(C)(C)C (stereo not shown) [I-b-2, 2-(2,6-diethyl-4-methylphenyl)-5-formyl-3-oxooctahydropentalen-1-yl 2,2-dimethylpropanoate] |  |  | 100 |  |  | 80 | 80 | 100 | 100 | 90 |  | 100
